target: T1, mutant G12C K-RAS (Homo sapiens, UniProt P01116, G12C); test: covalent adduct formation (CAF) with mutant G12C K-RAS; type: binding; set-up: CAF: unit not given here; settings: Table 1, Pyrimidone Core-Morpholine Unsubstituted; after 60 minutes at 10 micromolar
T1 construct: made in house; host or cells: E. coli BL21
Experimental: Embodiments disclosed herein are further illustrated by the following examples in Tables 1-4 and the Examples hereinbelow. The Tables indicate the compound number, structure, the observed mass spectral molecular weight peak, and covalent adduct formation (CAF) with a mutant G12C K-RAS after 60 minutes at a concentration of 10 micromolar.

| Structure (SMILES) | % CAF (60 min) |
| --- | --- |
| C=CC(=O)N1C[C@H](C)N(c2nc(=O)n3c4c(c(-c5cccc6cccc(Cl)c56)ccc24)OCC3)C[C@H]1C [Example 15, 7-((2S,5R)-4-acryloyl-2,5-dimethylpiperazin-1-yl)-10-(8-chloronaphthalen-1-yl)-2H-[1,4]oxazino[2,3,4-ij]quinazolin-5(3H)-one] | 0% |
| C#CC(=O)N1C[C@H](C)N(c2nc(=O)n3c4c(c(-c5ccc(F)cc5F)c(Cl)cc24)OCC3)C[C@H]1C [Example 14] | 46% |
| C=CC(=O)N1CCN(c2nc(=O)n3c4c(c(-c5c(C)ccc6[nH]ncc56)c(Cl)cc24)OCC3)CC1 [Example 8, (S)-7-(4-acryloylpiperazin-1-yl)-9-chloro-10-(5-methyl-1H-indazol-4-yl)-2H-[1,4]oxazino[2,3,4-ij]quinazolin-5(3H)-one] | 0% |
| C=CC(=O)N1CCN(c2nc(=O)n3c4c(c(-c5c(C)ccc6[nH]nc(C)c56)c(Cl)cc24)OCC3)CC1 [Example 9, 7-(4-acryloylpiperazin-1-yl)-9-chloro-10-(3,5-dimethyl-1H-indazol-4-yl)-2H-[1,4]oxazino[2,3,4-ij]quinazolin-5(3H)-one] | 72.6% |
| C=CC(=O)N1CCN(c2nc(=O)n3c4c(c(-c5c(C)ccc6[nH]ncc56)c(Cl)cc24)OCC3)CC1 [Example 7, (R)-7-(4-acryloylpiperazin-1-yl)-9-chloro-10-(5-methyl-1H-indazol-4-yl)-2H-[1,4]oxazino[2,3,4-ij]quinazolin-5(3H)-one] | 79.6% |

same assay, conditions: Table 2, Pyrimidone Core-Morpholine Substituted; after 60 minutes at 10 micromolar

| Structure (SMILES) | % CAF (60 min) |
| --- | --- |
| C=CC(=O)N1C[C@H](C)N(c2nc(=O)n3c4c(c(-c5ccc(F)cc5)c(Cl)cc24)OCC3CN(C)C)C[C@H]1C (stereo partly drawn) [Example 34, 7-((2S,5R)-4-acryloyl-2,5-dimethylpiperazin-1-yl)-9-chloro-3-((dimethylamino)methyl)-10-(4-fluorophenyl)-2H-[1,4]oxazino[2,3,4-ij]quinazolin-5(3H)-one] | 77.4% |
| C=CC(=O)N1C[C@H](C)N(c2nc(=O)n3c4c(c(-c5c(O)cccc5F)c(Cl)cc24)OC[C@H]3CO)C[C@H]1C [Example 33, (3R,10S)-7-((2S,5R)-4-acryloyl-2,5-dimethylpiperazin-1-yl)-9-chloro-1-(2-fluoro-6-hydroxyphenyl)-3-(hydroxymethyl)-2H-[1,4]oxazino[2,3,4-ij]quinazolin-5(3H)-one] | 87.3% |

same assay, conditions: Table 3, Pyridone Core-Morpholine Unsubstituted; after 60 minutes at 10 micromolar

| Structure (SMILES) | CAF |
| --- | --- |
| C=CC(=O)N1CCN(c2cc(=O)n3c4c(c(-c5ccc(F)cc5F)ccc24)CCC3)CC1 [Example 47, 1-(4-acryloylpiperazin-1-yl)-8-(2,4-difluorophenyl)-6,7-dihydropyrido[3,2,1-ij]quinolin-3(5H)-one] | 2 |

same assay, conditions: Table 6; 10 μM, 1 h

| Structure (SMILES) | % CAF @ 10 μM,1 h |
| --- | --- |
| C=CC(=O)N1C[C@H](C)N(c2nc(=O)n3c4c(c(-c5ccc(F)cc5F)c(Cl)cc24)OC[C@@H]3CN2C[C@H]3CC[C@@H](C2)N3C)C[C@H]1C [Example 286, (3S)-7-((2S,5R)-4-acryloyl-2,5-dimethylpiperazin-1-yl)-9-chloro-10-(2,4-difluorophenyl)-3-(((1R,5S)-8-methyl-3,8-diazabicyclo[3.2.1]octan-3-yl)methyl)-2H-[1,4]oxazino[2,3,4-ij]quinazolin-5(3H)-one] | 91.6% |
| C=CC(=O)N1C[C@H](C)N(c2nc(=O)n3c4c(c(-c5ccc(F)cc5F)c(Cl)cc24)OCC3CN2CCC(F)(F)C2)C[C@H]1C (stereo in doubt) [Example 207, (3R)-7-((2S,5R)-4-acryloyl-2,5-dimethylpiperazin-1-yl)-9-chloro-10-(2,4-difluorophenyl)-3-((3,3-difluoropyrrolidin-1-yl)methyl)-2H-[1,4]oxazino[2,3,4-ij]quinazolin-5(3H)-one] | 85.6% |
| C=CC(=O)N1C[C@H](C)N(c2nc(=O)n3c4c(c(-c5ccc(F)cc5F)c(Cl)cc24)OC[C@H]3CCCN(CC(F)(F)F)C2COC2)C[C@H]1C [Example 331, (3R)-7-((2S,5R)-4-acryloyl-2,5-dimethylpiperazin-1-yl)-9-chloro-10-(2,4-difluorophenyl)-3-(3-(oxetan-3-yl(2,2,2-trifluoroethyl)amino)propyl)-2,3-dihydro-5H-[1,4]oxazino[2,3,4-ij]quinazolin-5-one] | 59.2% |
| C=CC(=O)N1C[C@H](C)N(c2nc(=O)n3c4c(c(-c5ccc(F)cc5F)c(Cl)cc24)OC[C@H]3CCCN2CCOCC2)C[C@H]1C [Example 218, (3R)-7-((2S,5R)-4-acryloyl-2,5-dimethylpiperazin-1-yl)-9-chloro-10-(2,4-difluorophenyl)-3-(3-morpholinopropyl)-2,3-dihydro-5H-[1,4]oxazino[2,3,4-ij]quinazolin-5-one] | 95.6% |
| C=CC(=O)N1C[C@H](C)N(c2nc(=O)n3c4c(c(-c5ccc(F)cc5F)c(Cl)cc24)OC[C@H]3CCCO)C[C@H]1C [Example 251, (3R)-7-((2S,5R)-4-acryloyl-2,5-dimethylpiperazin-1-yl)-9-chloro-10-(2,4-difluorophenyl)-3-(3-hydroxypropyl)-2,3-dihydro-5H-[1,4]oxazino[2,3,4-ij]quinazolin-5-one] | 85.3% |
| C=CC(=O)N1C[C@H](C)N(c2nc(=O)n3c4c(c(-c5ccc(F)cc5F)c(Cl)cc24)OC[C@H]3CN(C(=O)[C@@H]2CCCN2C)C2CC2)C[C@H]1C [Example 307, (2S)-N-(((3R)-7-((2S,5R)-4-acryloyl-2,5-dimethylpiperazin-1-yl)-9-chloro-10-(2,4-difluorophenyl)-5-oxo-3,5-dihydro-2H-[1,4]oxazino[2,3,4-ij]quinazolin-3-yl)methyl)-N-cyclopropyl-1-methylpyrrolidine-2-carboxamide] | 51.1% |
| C=CC(=O)N1C[C@H](C)N(c2nc(=O)n3c4c(c(-c5c(O)cccc5F)c(Cl)cc24)OC[C@H]3CN2CCN(C)CC2)C[C@H]1C (atropisomer, axis not shown) [Example 301, (3R,10S)-7-((2S,5R)-4-acryloyl-2,5-dimethylpiperazin-1-yl)-9-chloro-10-(2-fluoro-6-hydroxyphenyl)-3-((4-methylpiperazin-1-yl)methyl)-2,3-dihydro-5H-[1,4]oxazino[2,3,4-ij]quinazolin-5-one] | 52.1% |
| C=CC(=O)N1C[C@H](C)N(c2nc(=O)n3c4c(c(-c5ccc(F)cc5F)c(Cl)cc24)OC[C@@H]3CCCO)C[C@H]1C [Example 250, (3S)-7-((2S,5R)-4-acryloyl-2,5-dimethylpiperazin-1-yl)-9-chloro-10-(2,4-difluorophenyl)-3-(3-hydroxypropyl)-2,3-dihydro-5H-[1,4]oxazino[2,3,4-ij]quinazolin-5-one] | 70.1% |
| C=CC(=O)N1C[C@H](C)N(c2nc(=O)n3c4c(c(-c5ccc(F)cc5F)c(Cl)cc24)OC[C@H]3CCCn2ccnc2)C[C@H]1C [Example 272, (3R)-3-(3-(1H-imidazol-1-yl)propyl)-7-((2S,5R)-4-acryloyl-2,5-dimethylpiperazin-1-yl)-9-chloro-10-(2,4-difluorophenyl)-2,3-dihydro-5H-[1,4]oxazino[2,3,4-ij]quinazolin-5-one] | 89.4% |
| C=CC(=O)N1C[C@H](C)N(c2nc(=O)n3c4c(c(-c5ccc(F)cc5F)c(Cl)cc24)OC[C@H]3CCCN2CCN(C)CC2)C[C@H]1C [Example 264, (3R)-7-((2S,5R)-4-acryloyl-2,5-dimethylpiperazin-1-yl)-9-chloro-10-(2,4-difluorophenyl)-3-(3-(4-methylpiperazin-1-yl)propyl)-2,3-dihydro-5H-[1,4]oxazino[2,3,4-ij]quinazolin-5-one] | 97.4% |
| C=CC(=O)N1C[C@H](C)N(c2nc(=O)n3c4c(c(-c5c(F)ccc6[nH]cnc56)ccc24)OCC3)C[C@H]1C [Example 201, 7-((2S,5R)-4-acryloyl-2,5-dimethylpiperazin-1-yl)-10-(5-fluoro-1H-benzo[d]imidazol-4-yl)-2,3-dihydro-5H-[1,4]oxazino[2,3,4-ij]quinazolin-5-one] | 0% |
| C=CC(=O)N1C[C@H](C)N(c2nc(=O)n3c4c(c(-c5ccc(F)cc5F)c(Cl)cc24)OC[C@H]3CC2CCN(C3CC3)CC2)C[C@H]1C [Example 329, (3R)-7-((2S,5R)-4-acryloyl-2,5-dimethylpiperazin-1-yl)-9-chloro-3-((1-cyclopropylpiperidin-4-yl)methyl)-10-(2,4-difluorophenyl)-2H-[1,4]oxazino[2,3,4-ij]quinazolin-5(3H)-one] | 73.4% |
| C=CC(=O)N1C[C@H](C)N(c2nc(=O)n3c4c(c(-c5ccc(F)cc5F)c(Cl)cc24)OC[C@H]3CCCN2CC(F)C2)C[C@H]1C [Example 279, (3R)-7-((2S,5R)-4-acryloyl-2,5-dimethylpiperazin-1-yl)-9-chloro-10-(2,4-difluorophenyl)-3-(3-(3-fluoroazetidin-1-yl)propyl)-2,3-dihydro-5H-[1,4]oxazino[2,3,4-ij]quinazolin-5-one] | 97.5% |
| C=CC(=O)N1C[C@H](C)N(c2nc(=O)n3c4c(c(-c5cccc6ccccc56)c(Cl)cc24)OC[C@H]3CN2CCN(C)CC2)C[C@H]1C (atropisomer, axis not shown) [Example 295, (3R,10R)-7-((2S,5R)-4-acryloyl-2,5-dimethylpiperazin-1-yl)-9-chloro-3-((4-methylpiperazin-1-yl)methyl)-10-(naphthalen-1-yl)-2H-[1,4]oxazino[2,3,4-ij]quinazolin-5(3H)-one] | 58.4% |
| C=CC(=O)N1C[C@H](C)N(c2nc(=O)n3c4c(c(-c5cc(Cl)ccc5F)c(Cl)cc24)OC[C@H]3CN2CCC(F)(F)C2)C[C@H]1C [Example 206, (3R)-7-((2S,5R)-4-acryloyl-2,5-dimethylpiperazin-1-yl)-9-chloro-10-(5-chloro-2-fluorophenyl)-3-((3,3-difluoropyrrolidin-1-yl)methyl)-2,3-dihydro-5H-[1,4]oxazino[2,3,4-ij]quinazolin-5-one] | 10.7% |
